From patent publication US8575391B2, “5-substituted-2-phenylamino benzamides as MEK inhibitors” (priority 2004, dated 2013) come the findings set out here.

A short description of one series: physchem. The settings on record: read-out: Water solubility. The class given is physicochemical.
A further series is described as follows: in vitro. The class given is in vitro ADME. The settings on record: liver microsomes, read-out: Stability against mouse liver microsome T1/2.
The mark [1] stands for this setting: aqueous buffer, thermodynamic from solid, 50 mM phosphate buffer (pH 6.5), room temperature (20° C.).
The mark [2] stands for this setting: mouse liver microsome 1 mg protein/mL, 2 mM NADPH, pH 7.4, 37° C.

≈ marks a conversion by molar mass, not a printed value. Where two headings read alike, the source gives them in different places.

For the compound `C#Cc1ccc(Nc2c(C(=O)NOCCO)cc(COCCO)c(F)c2F)c(F)c1` [Compound B-2, 2-(4-ethynyl-2-fluoro-phenylamino)-3,4-difluoro-N-(2-hydroxy-ethoxy)-5-(2-hydroxy-ethoxymethyl)-benzamide], the solubility at 2 h in “physchem” (setting [1]) came out at 811 µM (≈ 344 µg/mL). Also, the half-life in “in vitro” (setting [2]) is greater than 6 h.

On to `O=C(NOCCO)c1cc(COCCCO)c(F)c(F)c1Nc1ccc(I)cc1F` [Compound B-6, 3,4-difluoro-2-(2-fluoro-4-iodo-phenylamino)-N-(2-hydroxy-ethoxy)-5-(3-hydroxypropoxymethyl)-benzamide], for which the solubility at 2 h in “physchem” (setting [1]) was 519 µM (≈ 280 µg/mL). For the same compound, the half-life in “in vitro” (setting [2]) is greater than 6 h.

Turning to `O=C(NOCCO)c1cc(COCC(O)CO)c(F)c(F)c1Nc1ccc(I)cc1F` (centres unmarked) [Compound B-9, 5-(2,3-dihydroxy-propoxymethyl)-3,4-difluoro-2-(2-fluoro-4-iodo-phenylamino)-N-(2-hydroxy-ethoxy)-benzamide], in “physchem” (setting [1]), the solubility at 2 h is 958 µM (≈ 533 µg/mL). The half-life in the series “in vitro” (setting [2]) is greater than 6 h.

In the case of `CS(=O)(=O)CCOCc1cc(C(=O)NOCCO)c(Nc2ccc(I)cc2F)c(F)c1F` [Compound B-12, 3,4-difluoro-2-(2-fluoro-4-iodo-phenylamino)-N-(2-hydroxy-ethoxy)-5-(2-methanesulfonyl-ethoxymethyl)-benzamide], in the series “physchem” (setting [1]), the solubility at 2 h turned out to be 159 µM (≈ 93.5 µg/mL). The half-life in “in vitro” (setting [2]) was greater than 6 h.

In the case of `O=C(NOCCO)c1cc(CNOCCO)c(F)c(F)c1Nc1ccc(I)cc1F` [Compound C-1, 3,4-difluoro-2-(2-fluoro-4-iodo-phenylamino)-N-(2-hydroxy-ethoxy)-5-[(2-hydroxy-ethoxyamino)-methyl]-benzamide], the solubility at 2 h in the series “physchem” (50 mM phosphate buffer (pH 6.5), room temperature (20° C.)) is 606 µM (≈ 328 µg/mL). Besides, the half-life in “in vitro” (setting [2]) was determined as 2.15 h.

As for `C#Cc1ccc(Nc2c(C(=O)NOCCO)cc(CNOCCO)c(F)c2F)c(F)c1` [Compound C-2, 2-(4-Ethynyl-2-fluoro-phenylamino)-3,4-difluoro-N-(2-hydroxy-ethoxy)-5-[(2-hydroxy-ethoxyamino)-methyl]benzamide], in “physchem” (setting [1]), the solubility at 2 h is 2910 µM (≈ 1280 µg/mL). Further, the half-life in the series “in vitro” (setting [2]) was greater than 6 h.

`CNC(=O)CCONCc1cc(C(=O)NOCCO)c(Nc2ccc(I)cc2F)c(F)c1F` [Compound C-6, 3,4-Difluoro-2-(2-fluoro-4-iodo-phenylamino)-N-(2-hydroxy-ethoxy)-5-[(2-methylcarbamoyl-ethoxyamino)-methyl]benzamide]: the solubility at 2 h in the series “physchem” (phosphate buffer, 20 °C, pH 6.5, aqueous buffer, thermodynamic from solid) is 291 µM (≈ 169 µg/mL). In the series “in vitro” (mouse, pH 7.4), the half-life is greater than 6 h.

Regarding `CC(=O)NCCONCc1cc(C(=O)NOCCO)c(Nc2ccc(I)cc2F)c(F)c1F` [Compound C-7, 5-[(2-Acetylamino-ethoxyamino)-methyl]-3,4-difluoro-2-(2-fluoro-4-iodo-phenylamino)-N-(2-hydroxy-ethoxy)-benzamide], the solubility at 2 h in “physchem” (setting [1]) is 582 µM (≈ 339 µg/mL). In addition, the half-life in the series “in vitro” (setting [2]) was determined as 2.13 h.

Regarding `O=C(NOCCO)c1cc(CNOCCCO)c(F)c(F)c1Nc1ccc(I)cc1F` [Compound C-10, 3,4-difluoro-2-(2-fluoro-4-iodo-phenylamino)-N-(2-hydroxy-ethoxy)-5-[(3-hydroxy-propoxyamino)-methyl]-benzamide], in the series “physchem” (setting [1]), the solubility at 2 h worked out at 557 µM (≈ 309 µg/mL). In addition, the half-life in the series “in vitro” (setting [2]) worked out at 1.9 h.

Consider `CONCc1cc(C(=O)NOCCO)c(Nc2ccc(I)cc2F)c(F)c1F` [Compound C-24, 3,4-difluoro-2-(2-fluoro-4-iodo-phenylamino)-N-(2-hydroxy-ethoxy)-5-(methoxyamino-methyl)-benzamide], for which the solubility at 2 h in “physchem” (setting [1]) came to 455 µM (≈ 233 µg/mL). The half-life in “in vitro” (setting [2]) turned out to be 0.983 h.

`CC(C)(O)CONCc1cc(C(=O)NOCCO)c(Nc2ccc(I)cc2F)c(F)c1F` [Compound C-28, 3,4-difluoro-2-(2-fluoro-4-iodo-phenylamino)-N-(2-hydroxy-ethoxy)5-[(2-hydroxy-2-methyl-propoxyamino)-methyl]-benzamide]: the solubility at 2 h in “physchem” (setting [1]) is 206 µM (≈ 117 µg/mL). In addition, the half-life in the series “in vitro” (setting [2]) was greater than 6 h.

Regarding `C#Cc1ccc(Nc2c(C(=O)NOCCO)cc(CNOCC(C)(C)O)c(F)c2F)c(F)c1` [Compound C-29, 2-(4-Ethynyl-2-fluoro-phenylamino)-3,4-difluoro-N-(2-hydroxy-ethoxy)5-[(2-hydroxy-2-methyl-propoxyamino)-methyl]-benzamide], the solubility at 2 h in the series “physchem” (setting [1]) was 237 µM (≈ 111 µg/mL). For the same compound, the half-life in the series “in vitro” (setting [2]) was greater than 6 h.

As to `C[S+]([O-])CCONCc1cc(C(=O)NOCCO)c(Nc2ccc(I)cc2F)c(F)c1F` (centres unmarked) [Compound C-31, 3,4-difluoro-2-(2-fluoro-4-iodo-phenylamino)-N-(2-hydroxy-ethoxy)-5-[(2-methanesulfinyl-ethoxyamino)-methyl]-benzamide], in “physchem” (setting [1]), the solubility at 2 h came out at 613 µM (≈ 360 µg/mL). Besides, the half-life in “in vitro” (setting [2]) is greater than 6 h.

`CCC(=O)NCCONCc1cc(C(=O)NOCCO)c(Nc2ccc(I)cc2F)c(F)c1F` [Compound C-34, 3,4-Difluoro-2-(2-fluoro-4-iodo-phenylamino)-N-(2-hydroxy-ethoxy)-5-[(2-propionylamino-ethoxyamino)-methyl]-benzamide]: the solubility at 2 h in “physchem” (setting [1]) was 427 µM (≈ 255 µg/mL). Also, the half-life in “in vitro” (setting [2]) amounted to 3.97 h.

On to `CC(C)C(=O)NCCONCc1cc(C(=O)NOCCO)c(Nc2ccc(I)cc2F)c(F)c1F` [Compound C-35, 3,4-Difluoro-2-(2-fluoro-4-iodo-phenylamino)-N-(2-hydroxy-ethoxy)-5-[(2-isobutyrylamino-ethoxyamino)-methyl]-benzamide], for which the solubility at 2 h in “physchem” (setting [1]) was 219 µM (≈ 134 µg/mL). Also, the half-life in “in vitro” (setting [2]) is greater than 6 h.

On to `CON(C=O)Cc1cc(C(=O)NOCCO)c(Nc2ccc(I)cc2F)c(F)c1F` [Compound F-1, 3,4-Difluoro-2-(2-fluoro-4-iodo-phenylamino)-5-[(formyl-methoxy-amino)-methyl]-N-(2-hydroxy-ethoxy)-benzamide], for which the solubility at 2 h in “physchem” (setting [1]) was 457 µM (≈ 246 µg/mL). Moreover, the half-life in “in vitro” (setting [2]) stood at 2.82 h.

On to `CON(Cc1cc(C(=O)NOCCO)c(Nc2ccc(I)cc2F)c(F)c1F)C(=O)CO` [Compound F-5, 3,4-Difluoro-2-(2-fluoro-4-iodo-phenylamino)-5-{[(2-hydroxy-acetyl)-methoxy-amino]-methyl}-N-(2-hydroxy-ethoxy)-benzamide], for which the solubility at 2 h in “physchem” (setting [1]) turned out to be 509 µM (≈ 290 µg/mL). For the same compound, in the series “in vitro” (setting [2]), the half-life was found to be 0.867 h.

For `C#Cc1ccc(Nc2c(C(=O)NOCCO)cc(CN(OC)C(C)=O)c(F)c2F)c(F)c1` [Compound F-7, 5-[(Acetyl-methoxy-amino)-methyl]-2-(4-ethynyl-2-fluoro-phenylamino)-3,4-difluoro-N-(2-hydroxy-ethoxy)-benzamide], the solubility at 2 h in the series “physchem” (setting [1]) worked out at 550 µM (≈ 248 µg/mL). Further, the half-life in the series “in vitro” (setting [2]) turned out to be 0.683 h.

Regarding `CC1(C)CON(Cc2cc(C(=O)NOCCO)c(Nc3ccc(I)cc3F)c(F)c2F)C1=O` [Compound G-3, 5-(4,4-Dimethyl-3-oxo-isoxazolidin-2-ylmethyl)-3,4-difluoro-2-(2-fluoro-4-iodo-phenylamino)-N-(2-hydroxy-ethoxy)-benzamide], the solubility at 2 h in “physchem” (setting [1]) came to 39 µM (≈ 22.6 µg/mL). Moreover, the half-life in the series “in vitro” (setting [2]) is greater than 6 h.

For the compound `C#Cc1ccc(Nc2c(C(=O)NOCCO)cc(CN3OCCC3=O)c(F)c2F)c(F)c1` [Compound G-5, 2-(4-Ethynyl-2-fluoro-phenylamino)-3,4-difluoro-N-(2-hydroxy-ethoxy)-5-(3-oxo-isoxazolidin-2-ylmethyl)-benzamide], the solubility at 2 h in the series “physchem” (setting [1]) came out at 95 µM (≈ 42.7 µg/mL). Besides, the half-life in “in vitro” (setting [2]) is greater than 6 h.

With `O=C(NOCCO)c1ccc(F)c(F)c1Nc1ccc(I)cc1F` [P, reference compound], the half-life in the series “in vitro” (setting [2]) stood at 0.133 h.
